Results: the SangsterLogP compilation

SMILES	logP
CSc1n[nH]c(C2CCCCC2C(=O)Nc2ccc(Br)cc2)n1 (stereo unspecified)	4.02
CCC(C)NC(=O)C1CCCCC1c1nc(SC)n[nH]1 (stereo unspecified)	2.97
CCCNC(=O)C1CCCCC1c1nc(SC)n[nH]1 (stereo unspecified)	2.55
CCCCNC(=O)C1CCCCC1c1nc(SC)n[nH]1 (stereo unspecified)	2.97
CSc1n[nH]c(C2CCCCC2C(=O)NCCc2ccccc2)n1 (stereo unspecified)	3.51
COc1ccc(NC(=O)C2CCCCC2c2nc(SC)n[nH]2)cc1 (stereo unspecified)	3.19
CSc1n[nH]c(C2CCCCC2C(=O)NC2CCCCC2)n1 (stereo unspecified)	3.48
CSc1n[nH]c(C2CCCCC2C(=O)Nc2ccccc2Cl)n1 (stereo unspecified)	3.84
CSc1n[nH]c(C2CCCCC2C(=O)NCc2ccccc2)n1 (stereo unspecified)	3.17

The next lines start with the values.

logP	SMILES
3.67	CSc1n[nH]c(C2C3C=CC(C3)C2C(=O)Nc2ccc(Br)cc2)n1 (stereo unspecified)
2.8	CSc1n[nH]c(C2C3C=CC(C3)C2C(=O)NCc2ccccc2)n1 (stereo unspecified)
2.91	CSc1n[nH]c(C2C3C=CC(C3)C2C(=O)Nc2ccccc2)n1 (stereo unspecified)
3.12	CSc1n[nH]c(C2C3C=CC(C3)C2C(=O)NCCc2ccccc2)n1 (stereo unspecified)
2.86	COc1ccc(NC(=O)C2C3C=CC(C3)C2c2nc(SC)n[nH]2)cc1 (stereo unspecified)
3.44	CSc1n[nH]c(C2C3C=CC(C3)C2C(=O)Nc2ccccc2Cl)n1 (stereo unspecified)
2.57	CCC(C)NC(=O)C1C2C=CC(C2)C1c1nc(SC)n[nH]1 (stereo unspecified)
3.3	CSc1n[nH]c(C2CCCCC2C(=O)Nc2ccccc2)n1 (stereo unspecified)
3.03	CSc1n[nH]c(C2C3C=CC(C3)C2C(=O)NC2CCCCC2)n1 (stereo unspecified)
2.13	CCCNC(=O)C1C2C=CC(C2)C1c1nc(SC)n[nH]1 (stereo unspecified)
3.29	CSc1n[nH]c(C2C3C=CC(C3)C2C(=O)Nc2cccc(C)c2)n1 (stereo unspecified)
2.55	CCCCNC(=O)C1C2C=CC(C2)C1c1nc(SC)n[nH]1 (stereo unspecified)
